Laboratory results published in ChEMBL document CHEMBL4402559, “Structure-Based Design and Pharmacokinetic Optimization of Covalent Allosteric Inhibitors of the Mutant GTPase KRASG12C” (J Med Chem, 2020).

Assays:
[1] = Intrinsic clearance in human liver microsomes; assay type: ADME, Microsome; settings: liver microsomes, read-out: CLH
[2] = Intrinsic clearance in rat hepatocytes assessed per 10^-6 cells; assay type: ADME, cell-based, Hepatocyte
[3] = Distribution coefficient, log D of compound at pH 7.4; assay type: physicochemical; settings: octanol/water, read-out: logD
[4] = Efflux ratio of apparent permeability in human Caco2 cells at 10 uM at pH 7.4; assay type: ADME, cell-based; settings: Caco-2, pH 7.4
GTPase KRas = GTPase KRas (Homo sapiens, UniProt P01116, G12C); test: Inhibition of GDP bound biotinylated human C-terminal Avi/His6-tagged KRAS G12C mutant (1 to 166 residues) expressed in Escherichia coli BL21 (DE3) assessed as reduction in SOS1-mediated GDP/GTP nucleotide exchange by preventing recognition between KRAS G12C mutant and Ras binding domain of N-terminal Avi/GST-tagged Raf-1 (51 to 149 residues) preincubated for 4 hrs followed by SOS1 and GTPgammaS addition by FRET assay
in vivo = settings: Han Wistar, rat, po, 2 umol/kg
[5] = GSH reactivity in PBS buffer assessed as half life at pH 7.4 and 37 degree C in presence of glutathione; assay type: physicochemical; settings: PBS buffer with glutathione
[6] = Volume of distribution at steady state in Han Wistar rat at 2 umol/kg, po or 1 umol/kg, iv; settings: in vivo
[7] = Clearance in Han Wistar rat at 2 umol/kg, po or 1 umol/kg, iv; settings: in vivo

Row | SMILES | microsomal CLint [1] [µL/min/mg] | hepatocyte intrinsic clearance [2] [µL/min] | logD [3] | efflux ratio at 10 µM [4] | IC50 (GTPase KRas) [nM] | bioavailability (in vivo) [%] | half-life [5] [h] | Vd [6] [L/kg] | clearance [7] [mL/min/kg]
1 | C=CC(=O)N1CCN2c3c(cnc4cc(-c5c(O)cccc5F)c(Cl)cc34)NC[C@H]2C1 | 18 | 17 | 3.3 | 1.4 |  |  |  |  | 
2 | C=CC(=O)N1CCN2c3c(cnc4c(OC)c(-c5c(O)cccc5F)c(Cl)cc34)OC[C@H]2C1 (single isomer, unassigned; atropisomer 2) | 40 | 56 | 3 |  | 70 |  |  |  | 
3 | C=CC(=O)N1C[C@@H]2COc3cnc4cc(-c5c(O)cccc5F)c(Cl)cc4c3N2C[C@H]1C | 32 | 42 | 3.8 | 0.7 | 52 | 96 | 5.42 | 0.6 | 7
4 | C=CC(=O)N1CCN2c3c(cnc4cc(-c5c(O)cccc5F)c(Cl)cc34)N(C)C[C@H]2C1 | 26 | 99 | 4.1 | 1.5 |  |  |  |  | 
5 | C=CC(=O)N1CCN2c3c(cnc4cc(-c5c(O)cccc5F)c(Cl)cc34)N(C)C(=O)[C@H]2C1 | 24 | 7 | 3 | 0.9 | 150 |  |  |  | 
6 | C=CC(=O)N1CCN2c3c(cnc4c(C)c(-c5c(O)cccc5F)c(Cl)cc34)OC[C@H]2C1 (single isomer, unassigned; atropisomer) | 28 | 40 | 3.8 |  |  |  |  |  | 
7 | C=CC(=O)N1CCN(c2ncnc3cc(-c4c(C)ccc5[nH]ncc45)c(Cl)cc23)CC1 | 38 | 56 | 3.5 |  | 496 |  |  |  | 
8 | C=CC(=O)N1CCN2c3c(cnc4cc(-c5c(C)ccc6[nH]ncc56)c(Cl)cc34)OC[C@@H]2C1 (single isomer, unassigned; atropisomer 2) | 103 | 75 | 4.3 |  | 610 |  |  |  | 
9 | C=CC(=O)N1CCN2c3c(cnc4cc(-c5c(O)cccc5F)c(Cl)cc34)OC[C@H]2C1 | 25 | 32 | 3.6 | 0.5 |  | 64 | 6.93 | 1.2 | 35
